Assay results from patent publication US10144762B2, “Antibacterial antisense oligonucleotide and method” (priority 2005, dated 2018).
In brackets after ≈: the same amount, converted by molar mass. Several values for one entry are separate records, joined by “and”; a condition that tells them apart may be missing. Identical values can stand only once. Like-named read-outs stand apart in the source and are kept apart here.

Legend:
E. coli AS19 = format: cell-based
[1] = tested on: E. coli AS19 (pT7myc-luc); format: in vivo; settings: mice; for CFU/ml (×10^6): peritoneal lavage
luciferase transcript [2] = test: Western blot of luciferase protein normalized to OmpA in peritoneal lavage bacteria; format: in vivo, firefly; set-up: Western Blot % Inhibition (luciferase protein): concentration or dose not given beside the values; settings: for Western Blot % Inhibition (luciferase protein): compared to nonsense PMO-treated mice; for Western Blot Luc/OmpA Mean: n = 7-8
luciferase transcript [3] = tested on: luciferase transcript; set-up: species or system firefly; settings: in vivo
E. coli W3110 [4] = test: MIC, broth microdilution method of the Clinical and Laboratory Standards Institute; format: cell-based; settings: Escherichia coli, read-out: minimum inhibitory concentration (MIC)
E. coli W3110 [5] = test: E. coli W3110 pure culture, CFU/ml and dose-response; format: cell-based

Row | Compound | growth monitored by optical density (E. coli AS19) | viable cells (CFU/ml) (E. coli AS19) | CFU/ml (×10^6) ([1]; 13 h after treatment) | CFU/ml (×10^6) ([1]; 22 h after treatment) | inhibition of growth compared to nonsense PMO treatment ([1]; treated at 0 and 13 hours post-infection) | Western Blot % Inhibition (luciferase protein) (luciferase transcript [2]; 13 h) [%] | Western Blot Luc/OmpA Mean (luciferase transcript [2]; 13 h after treatment) | Western Blot % Inhibition (luciferase protein) (luciferase transcript [2]; 22 h) [%] | Western Blot % Inhibition (luciferase protein) (luciferase transcript [2]; 22 h, listed as luc PMO) [%] | Western Blot Luc/OmpA Mean (luciferase transcript [2]; 22 h after treatment) | Luciferase Activity % Inhibition (luciferase transcript [3]) | Luciferase Activity RLU/CFU Mean (luciferase transcript [3]) | MIC (E. coli W3110 [4]) [µM] | antibacterial activity (CFU/ml after 8 hours) (E. coli W3110 [5]; E. coli W3110 (FIG. 13)) | IC50 (E. coli W3110 [5]; Escherichia coli, E. coli W3110 pure culture (FIG. 14), read-out: IC50 (50% inhibitory concentration)) [µM]
1 | PMO 62-4: acpP-14mer PMO, TC GAT AGT GCT CAT, SEQ ID NO 65 (antisense TCGATAGTGCTCAT; all phosphorodiamidate morpholino (PMO)) | statistically insignificant inhibitions | significantly reduced |  |  |  |  |  |  |  |  |  |  |  |  | 
2 | Luc: PMO complementary to the region around the start codon of the luciferase transcript, ACG TTG AGG C, SEQ ID NO 77 (antisense ACGTTGAGGC; all phosphorodiamidate morpholino (PMO)) |  |  | 6.3 ×10^6 CFU/ml | 0.96 ×10^6 CFU/ml | no inhibition of growth | 68 | 0.122 | 57 | 47 | 0.147 | 53% and 46% | 3.20 RLU/CFU and 2.90 RLU/CFU |  |  | 
3 | CC1(C)S[C@@H]2[C@H](NC(=O)[C@H](N)c3ccccc3)C(=O)N2[C@H]1C(=O)O [ampicillin] |  |  |  |  |  |  |  |  |  |  |  |  | 10 (≈ 3.49 µg/mL) | showed antibacterial activity | 7.7
4 | Nonsense: nonsense PMO control for luc PMO, TCC ACT TGC C, SEQ ID NO 78 (TCCACTTGCC; all phosphorodiamidate morpholino (PMO)) [reference compound] |  |  | 4.3 ×10^6 CFU/ml | 0.39 ×10^6 CFU/ml |  | 0 | 0.382 | 0 |  | 0.339 |  | 6.19 RLU/CFU and 8.12* RLU/CFU |  |  | 
